Source: ChEMBL document CHEMBL1795274, “Synthesis and antiviral activity of cyclopropyl-spirocarbocyclic adenosine, (4R,5S,6R,7R)-4-(6-amino-9H-purin-9-yl)-7-(hydroxymethyl)spiro[2.4]heptane-5,6-diol against hepatitis C virus” (Bioorg Med Chem Lett, 2011)
Calls of active or inactive are those of the source. The calls are words filed in the database; no cut-off is given here.

Legend:
[1] = Cytotoxicity against human HuH7 cells expressing E2 glycoprotein assessed as reduction of rRNA level after 5 days; format: cell-based, Huh-7
Hepatitis C virus [2] = assay: Antiviral activity against HCV1a infected in human HuH7 cells expressing E2 glycoprotein assessed as inhibition of viral RNA replication after 5 days; format: functional, organism-based, Hepacivirus hominis; details: subtype 1a, Huh-7, 120 h
[3] = Selectivity index, ratio of CC50 for human HuH7 cells to EC50 for HCV 1a; set-up: species or system Huh-7
Measles morbillivirus [4] = assay: Antiviral activity against Measles virus infected in human HuH7 cells assessed as reduction of viral level by neutral red assay; format: functional, organism-based; details: Huh-7
Influenza A virus [5] = assay: Antiviral activity against Influenza A virus H1N1; format: functional, organism-based
[6] = Selectivity index, ratio of CC50 for human HuH7 cells to EC50 for Vaccinia virus; format: toxicity, cell-based, Huh-7; details: read-out: Ratio CC50/EC50
Hepatitis B virus = assay: Antiviral activity against Hepatitis B virus; format: functional, organism-based
unidentified adenovirus [7] = assay: Antiviral activity against Adenovirus infected in human HuH7 cells assessed as reduction of viral level by neutral red assay; format: functional, organism-based; details: Huh-7
Measles morbillivirus [8] = assay: Antiviral activity against Measles virus infected in human HuH7 cells assessed as reduction of viral level by visual assay; format: functional, organism-based; details: Huh-7
SARS-CoV = assay: Antiviral activity against SARS coronavirus; format: functional, organism-based; details: Severe acute respiratory syndrome-related coronavirus
[9] = Selectivity index, ratio of CC50 for human HuH7 cells to EC50 for Adenovirus by neutral red assay; format: toxicity, cell-based, Huh-7; details: read-out: Ratio CC50/EC50
[10] = Selectivity index, ratio of CC50 for human HuH7 cells to EC50 for Adenovirus by visual assay; format: toxicity, cell-based, Huh-7; details: read-out: Ratio CC50/EC50
[11] = Cytotoxicity against human HuH7 cells; format: cell-based, Huh-7
Human alphaherpesvirus 3 = assay: Antiviral activity against Varicella zoster virus; format: functional, organism-based
Yellow fever virus = assay: Antiviral activity against Yellow fever virus; format: functional, organism-based
Vaccinia virus = assay: Antiviral activity against Vaccinia virus infected in human HuH7 cells assessed as reduction of virus-induced cytopathic-effect; format: functional, organism-based; details: Orthopoxvirus vaccinia, Huh-7
[12] = Selectivity index, ratio of CC50 for human HuH7 cells to EC50 for Measles virus by visual assay; format: toxicity, cell-based, Huh-7; details: read-out: Ratio CC50/EC50
Enterovirus = assay: Antiviral activity against Rhinovirus; format: functional, organism-based
West Nile virus = assay: Antiviral activity against West Nile virus; format: functional, organism-based
Hepatitis C virus [13] = assay: Antiviral activity against HCV1b infected in human Huh7 cells expressing E2 glycoprotein assessed as inhibition of viral RNA replication after 5 days; format: functional, organism-based, Hepacivirus hominis; details: genotype 1b, Huh-7, 120 h
Influenza A virus [14] = assay: Antiviral activity against Influenza A virus H5N1; format: functional, organism-based
Cowpox virus = assay: Antiviral activity against Cowpox virus; format: functional, organism-based
[15] = Selectivity index, ratio of CC50 for human HuH7 cells to EC50 for Measles virus by neutral red assay; format: toxicity, cell-based, Huh-7; details: read-out: Ratio CC50/EC50
Influenza A virus [16] = assay: Antiviral activity against Influenza A virus H3N2; format: functional, organism-based
Human respirovirus 3 = assay: Antiviral activity against Human parainfluenza virus 3; format: functional, organism-based
Human alphaherpesvirus 1 = assay: Antiviral activity against HSV1; format: functional, organism-based
Human alphaherpesvirus 2 = assay: Antiviral activity against HSV2; format: functional, organism-based
[17] = tested on: Venezuelan equine encephalitis virus; assay: Antiviral activity against Venezuelan equine encephalitis virus; format: functional, organism-based
unidentified adenovirus [18] = assay: Antiviral activity against Adenovirus infected in human HuH7 cells assessed as reduction of viral level by visual assay; format: functional, organism-based; details: Huh-7
[19] = Selectivity index, ratio of CC50 for human HuH7 cells to EC50 for HCV 1b; set-up: species or system Huh-7

C[C@@]1(O)[C@H](O)[C@@H](CO)O[C@H]1n1ccc(N)nc1=O
CC50 at 120 h [1]: > 300 µM
EC50 (Hepatitis C virus [2]): 1.7 µM
EC90 (Hepatitis C virus [2]): 8.2 µM
Ratio CC50/EC50 [3]: >272

Nc1ncnc2c1ncn2[C@H]1[C@H](O)[C@H](O)[C@@H](CO)C12CC2
EC50 (Measles morbillivirus [4]): 9 µM
Activity (Influenza A virus [5]): inactive
selectivity ratio [6]: > 7.1
CC50 at 120 h [1]: > 100 µM
Activity (Hepatitis B virus): inactive
EC50 (Hepatitis C virus [2]): 0.273 µM
EC90 (Hepatitis C virus [2]): 3 µM
EC50 (unidentified adenovirus [7]): 3 µM
EC50 (Measles morbillivirus [8]): 7 µM
Activity (SARS-CoV): inactive
selectivity ratio [9]: 4
selectivity ratio [10]: 3
CC50 [11]: > 10 µM
Activity (Human alphaherpesvirus 3): inactive
Activity (Yellow fever virus): inactive
EC50 (Vaccinia virus): 42.7 µM
selectivity ratio [12]: 2
Activity (Enterovirus): inactive
Activity (West Nile virus): inactive
EC50 (Hepatitis C virus [13]): 0.368 µM
EC90 (Hepatitis C virus [13]): 1.2 µM
Activity (Influenza A virus [14]): inactive
Ratio CC50/EC50 [3]: >366
Activity (Cowpox virus): inactive
selectivity ratio [15]: 5
Activity (Influenza A virus [16]): inactive
Activity (Human respirovirus 3): inactive
Activity (Human alphaherpesvirus 1): inactive
Activity (Human alphaherpesvirus 2): inactive
Activity [17]: inactive
EC50 (unidentified adenovirus [18]): 3 µM
Ratio CC50/EC50 [19]: >272
